Measurements as given in patent publication US4471131A, “Novel silyl esters of N-phosphonomethylglycine” (Monsanto Company, priority 1983, dated 1984).

Key:
Test in all cases: post-emergence herbicidal activity, greenhouse
Format in all cases: in vivo
Hemp Sesbania = settings: Table III; 2 WAT; 1.1 kg/h
Description: (§1) A good grade of top soil is placed in aluminum pans having holes in the bottom and compacted to a depth of 0.95 to 1.27 cm. from the top of the pan. A predetermined number of seeds of each of several dicotyledonous and moncotyledonous annual plant species and/or vegetative propagules for the perennial plant species were placed on the soil and pressed into the soil surface. The seeds and/or vegetative propagules are covered with soil and leveled. The pans are then placed on a sand bench in the greenhouse and watered from below as needed. After the plants reach the desired age (two to three weeks), each pan, except for the control pans, is removed individually to a spraying chamber and sprayed by means of an atomizer at the rates noted. In the spray solution is an amount of an emulsifying agent mixture to give a spray solution or suspension which contains about 0.4% by weight of the emulsifier. The spray solution or suspension contains a sufficient amount of the candidate chemical in order to give application rates corresponding to those set forth in the tables. The pans were returned to the greenhouse and watered as before and the injury to the plants as compared to the control is observed at approximately two and four weeks and the results recorded. In the tables, WAT means "weeks after treatment."
(§2) The post-emergent herbicidal activity index used in Tables II and III is as follows:
(§3) The plant species utilized in these tests are identified by letter in accordance with the following legend: […]

Johnsongrass = settings: Table II
Description: as §1, §2, §3

Common Lambsquarters = system: Common Lambsquarters
Description: as §1, §2, §3

Barnyardgrass = system: Barnyardgrass
Description: as §1, §2, §3

Panicum Spp = settings: Table III; 2 WAT; 1.1 kg/h
Description: as §1, §2, §3

Cocklebur = system: Cocklebur
Description: as §1, §2, §3

Canada Thistle = settings: Table II
Description: as §1, §2, §3

Wild Buckwheat = settings: Table III; 2 WAT; 1.1 kg/h
Description: as §1, §2, §3

Yellow Nutsedge = settings: Table II
Description: as §1, §2, §3

Velvetleaf = system: Velvetleaf
Description: as §1, §2, §3

Downy Brome = system: Downy Brome
Description: as §1, §2, §3

Sugar Beet = settings: Table III; 2 WAT; 1.1 kg/h
Description: as §1, §2, §3

Quackgrass = settings: Table II
Description: as §1, §2, §3

Soybean = settings: Table III; 2 WAT; 1.1 kg/h
Description: as §1, §2, §3

Large Crabgrass = settings: Table III; 2 WAT; 1.1 kg/h
Description: as §1, §2, §3

Rice = settings: Table III; 2 WAT; 1.1 kg/h
Description: as §1, §2, §3

Pennsylvania Smartweed = settings: Table II
Description: as §1, §2, §3

Morningglory = system: Morningglory
Description: as §1, §2, §3

Which results are given for `CC(C)(C)[Si](OP(=O)(O)CNCC(=O)OCCCl)(c1ccccc1)c1ccccc1` [Ex. 8, Glycine, N--((([(1,1-Dimethylethyl)Diphenylsilyl]oxy)Hydroxyphosphinyl)Methyl)-,2-Chloroethyl Ester Hydrate]?
Plant Response Index (R) (Hemp Sesbania): 1 (25-49% inhibition); Plant Response Index (I) (Johnsongrass; 2 WAT, 5.6 kg/h): 0 (0-24% inhibition); Plant Response Index (I) (Johnsongrass; 2 WAT, 11.2 kg/h): 1 (25-49% inhibition); Plant Response Index (I) (Johnsongrass; 4 WAT, 5.6 kg/h): 2 (50-74% inhibition); Plant Response Index (I) (Johnsongrass; 4 WAT, 11.2 kg/h): 2 (50-74% inhibition); Plant Response Index (E) (Common Lambsquarters; Table II, 2 WAT, 5.6 kg/h): 2 (50-74% inhibition); Plant Response Index (E) (Common Lambsquarters; Table II, 2 WAT, 11.2 kg/h): 1 (25-49% inhibition); Plant Response Index (E) (Common Lambsquarters; Table II, 4 WAT, 5.6 kg/h): 2 (50-74% inhibition); Plant Response Index (E) (Common Lambsquarters; Table II, 4 WAT, 11.2 kg/h): 1 (25-49% inhibition); Plant Response Index (E) (Common Lambsquarters; Table III, 2 WAT, 1.1 kg/h): 3 (75-99% inhibition); Plant Response Index (K) (Barnyardgrass; Table II, 2 WAT, 5.6 kg/h): 3 (75-99% inhibition); Plant Response Index (K) (Barnyardgrass; Table II, 2 WAT, 11.2 kg/h): 2 (50-74% inhibition); Plant Response Index (K) (Barnyardgrass; Table II, 4 WAT, 5.6 kg/h): 4 (100% inhibition); Plant Response Index (K) (Barnyardgrass; Table II, 4 WAT, 11.2 kg/h): 3 (75-99% inhibition); Plant Response Index (K) (Barnyardgrass; Table III, 2 WAT, 1.1 kg/h): 1 (25-49% inhibition); Plant Response Index (S) (Panicum Spp): 1 (25-49% inhibition); Plant Response Index (B) (Cocklebur; Table II, 2 WAT, 5.6 kg/h): 2 (50-74% inhibition); Plant Response Index (B) (Cocklebur; Table II, 2 WAT, 11.2 kg/h): 3 (75-99% inhibition); Plant Response Index (B) (Cocklebur; Table II, 4 WAT, 5.6 kg/h): 3 (75-99% inhibition); Plant Response Index (B) (Cocklebur; Table II, 4 WAT, 11.2 kg/h): 3 (75-99% inhibition); Plant Response Index (B) (Cocklebur; Table III, 2 WAT, 1.1 kg/h): 0 (0-24% inhibition); Plant Response Index (A) (Canada Thistle; 2 WAT, 5.6 kg/h): 2 (50-74% inhibition); Plant Response Index (A) (Canada Thistle; 2 WAT, 11.2 kg/h): 2 (50-74% inhibition); Plant Response Index (A) (Canada Thistle; 4 WAT, 5.6 kg/h): 4 (100% inhibition); Plant Response Index (A) (Canada Thistle; 4 WAT, 11.2 kg/h): 2 (50-74% inhibition); Plant Response Index (Q) (Wild Buckwheat): 0 (0-24% inhibition); Plant Response Index (G) (Yellow Nutsedge; 2 WAT, 5.6 kg/h): 2 (50-74% inhibition); Plant Response Index (G) (Yellow Nutsedge; 2 WAT, 11.2 kg/h): 2 (50-74% inhibition); Plant Response Index (G) (Yellow Nutsedge; 4 WAT, 5.6 kg/h): 2 (50-74% inhibition); Plant Response Index (G) (Yellow Nutsedge; 4 WAT, 11.2 kg/h): 3 (75-99% inhibition); Plant Response Index (C) (Velvetleaf; Table II, 2 WAT, 5.6 kg/h): 1 (25-49% inhibition); Plant Response Index (C) (Velvetleaf; Table II, 2 WAT, 11.2 kg/h): 3 (75-99% inhibition); Plant Response Index (C) (Velvetleaf; Table II, 4 WAT, 5.6 kg/h): 1 (25-49% inhibition); Plant Response Index (C) (Velvetleaf; Table II, 4 WAT, 11.2 kg/h): 3 (75-99% inhibition); Plant Response Index (C) (Velvetleaf; Table III, 2 WAT, 1.1 kg/h): 0 (0-24% inhibition); Plant Response Index (J) (Downy Brome; Table II, 2 WAT, 5.6 kg/h): 1 (25-49% inhibition); Plant Response Index (J) (Downy Brome; Table II, 2 WAT, 11.2 kg/h): 2 (50-74% inhibition); Plant Response Index (J) (Downy Brome; Table II, 4 WAT, 5.6 kg/h): 1 (25-49% inhibition); Plant Response Index (J) (Downy Brome; Table II, 4 WAT, 11.2 kg/h): 3 (75-99% inhibition); Plant Response Index (J) (Downy Brome; Table III, 2 WAT, 1.1 kg/h): 0 (0-24% inhibition); Plant Response Index (M) (Sugar Beet): 0 (0-24% inhibition); Plant Response Index (H) (Quackgrass; 2 WAT, 5.6 kg/h): 3 (75-99% inhibition); Plant Response Index (H) (Quackgrass; 2 WAT, 11.2 kg/h): 2 (50-74% inhibition); Plant Response Index (H) (Quackgrass; 4 WAT, 5.6 kg/h): 4 (100% inhibition); Plant Response Index (H) (Quackgrass; 4 WAT, 11.2 kg/h): 3 (75-99% inhibition); Plant Response Index (L) (Soybean): 0 (0-24% inhibition); Plant Response Index (T) (Large Crabgrass): 2 (50-74% inhibition); Plant Response Index (O) (Rice): 0 (0-24% inhibition); Plant Response Index (F) (Pennsylvania Smartweed; 2 WAT, 5.6 kg/h): 3 (75-99% inhibition); Plant Response Index (F) (Pennsylvania Smartweed; 2 WAT, 11.2 kg/h): 2 (50-74% inhibition); Plant Response Index (F) (Pennsylvania Smartweed; 4 WAT, 5.6 kg/h): 4 (100% inhibition); Plant Response Index (F) (Pennsylvania Smartweed; 4 WAT, 11.2 kg/h): 4 (100% inhibition); Plant Response Index (D) (Morningglory; Table II, 2 WAT, 5.6 kg/h): 2 (50-74% inhibition); Plant Response Index (D) (Morningglory; Table II, 2 WAT, 11.2 kg/h): 2 (50-74% inhibition); Plant Response Index (D) (Morningglory; Table II, 4 WAT, 5.6 kg/h): 2 (50-74% inhibition); Plant Response Index (D) (Morningglory; Table II, 4 WAT, 11.2 kg/h): 2 (50-74% inhibition); Plant Response Index (D) (Morningglory; Table III, 2 WAT, 1.1 kg/h): 0 (0-24% inhibition)
